Assay results reported in patent US8742082B2, “Compositions and methods for influencing satiety, lipid metabolism, and fat utilization” (Nestec S.A., priority 2008, dated 2014).

Legend:
Assay type in all cases: in vivo
[1] = system: Sterol regulatory element binding protein-c 1 (SREBP 1c); assay: Real-time PCR gene expression in peripheral tissues: SREBP1c; settings: C57bl6j mice, high fat diet, 100 mg/kg/body weight in diet, 5 weeks
Method: (§1) The expression of 45 genes was measured by real-time PCR in peripheral tissues to identify genes that were differentially expressed in response to oral administration of oleoylethanolamide (OEA) or a non-hydrolysable OEA analog (KDS 5104), which affect satiety, lipid metabolism, fat utilization, food intake, and body fat mass.
(§2) Animals, diet, and experimental design. Adult male C57bl6j mice purchased at 8 weeks of age were individually housed and maintained ad libitum on high fat diet and water for 2 weeks. Seven mice were randomly allocated in 3 groups and fed with a high fat diet (lipids represented 50% of daily energy) for 2 weeks. For one kilogram, the composition of the high fat diet was: 235 g casein, 201 g saccharose, 3.5 g L-cystine, 85 g starch, 116 g maltodextrin, 60 g cellulose, 12 g vitamins mix (AIN-93M, UPAE, Jouy-en-Josas, France), 51.5 g mineral mix (AIN-93Vx, UPAE, Jouy-en-Josas, France), and 236 g lard. Then, either OEA or KDS 5104 was added to the diet at a concentration of 100 mg/kg/body weight. The mice were kept under treatment for 5 weeks.
(§3) Sampling. At the end of the experimental period, mice were sacrificed by blood drawing (cardiac puncture) after anesthesia with isoflurane. Plasma was obtained by centrifugation (1,000 g for 10 min at 4° C.). Mesenteric, epididymal, inguinal and peritoneal adipose depots, as well as liver, stomach, small intestine mucosa, pancreas, and gastrocnemian muscle were removed and frozen into liquid nitrogen. Plasma, urine, feces, and organ samples were kept at −80° C. until analysis.
(§4) RNA extraction and gene expression. Total RNA from liver, intestine mucous membrane, adipose tissues, gastrocnemian muscle, pancreas and stomach were extracted with TRIzol reagent (Invitrogen, Carlsbad, USA) according to the manufacturer's instruction. The RNA concentration was determined on nanodrop from the absorbance at 260 nm. Retro-transcription PCRs to synthesize cDNA were performed using an Applied Biosystem Thermal Cycler 2720 and Superscript II (Invitrogen, Carlsbad, USA) according to manufacturer's protocol. Real-time quantitative PCR (RT-qPCR) were performed on cDNA obtained as described above using a high through put system (Biomek 3000, Beckman & Coulter, Fullerton, USA) and a Lightcycler 480 (Roche/Hitachi, Basel, Switzerland) with SYBR Green Master mix+kit (Eurogentec, Philadelphia, USA). Primers for the selected genes were generated using online informatics assistance from the Lightcycler manufacturer (Roche). Databases used to identify the genes were (1) the NCBI database (GenBank) and (2) the IHOP (Information Hyperlinked over Protein) database (www.ihop-net.org/UniPub/iHOP/bng/). Values were expressed as ratio of RNA levels relative to control mice (diets with 0 mg of OEA/kg/body weight) using ΔΔ(Ct) (Livak K J & Schmittgen T D, 2001, Methods 25:402-8). Gene expression of the following genes was measured (abbreviation and GenBank Accession shown in parentheses).
(§5) Statistical analysis. […] Statistical analysis of physiological parameters and gene expression data was performed by one-way ANOVA on Statview software (SAS Institute, Cary, USA). Daily food intake was analyzed using two-way ANOVA on Statview software. Statistical significance was set up at the P<0.05 level, the P<0.01 level and the P<0.001 level. For statistical analysis of the gene expression data, values were calculated relative to 18S expression for each mouse and gene.

[2] = system: Uncoupling protein 2 (UCP2); assay: Real-time PCR gene expression in peripheral tissues: UCP2; settings: muscle; C57bl6j mice, high fat diet, 100 mg/kg/body weight in diet, 5 weeks
Method: as §1
(§6) Animals, diet, and experimental design. Adult male C57bl6j mice purchased at 8 weeks of age were individually housed and maintained ad libitum on high fat diet and water for 2 weeks. Seven mice were randomly allocated in 3 groups and fed with a high fat diet (lipids represented 50% of daily energy) for 2 weeks. […]
(§7) RNA extraction and gene expression. […] The RNA concentration was determined on nanodrop from the absorbance at 260 nm. […] Real-time quantitative PCR (RT-qPCR) were performed on cDNA obtained as described above using a high through put system (Biomek 3000, Beckman & Coulter, Fullerton, USA) and a Lightcycler 480 (Roche/Hitachi, Basel, Switzerland) with SYBR Green Master mix+kit (Eurogentec, Philadelphia, USA). […] Values were expressed as ratio of RNA levels relative to control mice (diets with 0 mg of OEA/kg/body weight) using ΔΔ(Ct) (Livak K J & Schmittgen T D, 2001, Methods 25:402-8). Gene expression of the following genes was measured (abbreviation and GenBank Accession shown in parentheses). […]

[3] = system: Cannabinoid receptor 1 (CB 1); assay: Real-time PCR gene expression in peripheral tissues: CB1; settings: C57bl6j mice, high fat diet, 100 mg/kg/body weight in diet, 5 weeks
Method: as §1, §2, §3, §4, §5

[4] = system: Fatty acid amide hydrolase (FAAH); assay: Real-time PCR gene expression in peripheral tissues: FAAH; settings: C57bl6j mice, high fat diet, 100 mg/kg/body weight in diet, 5 weeks
Method: as §1, §2, §3, §4, §5

Cholescystokinin (CCK) = assay: Real-time PCR gene expression in peripheral tissues: CCK; settings: proximal intestine; C57bl6j mice, high fat diet, 100 mg/kg/body weight in diet, 5 weeks
Method: as §1, §6, §7

Adiponectin = assay: Real-time PCR gene expression in peripheral tissues: adiponectin; settings: C57bl6j mice, high fat diet, 100 mg/kg/body weight in diet, 5 weeks
Method: as §1, §2, §3
RNA extraction and gene expression. Total RNA from liver, intestine mucous membrane, adipose tissues, gastrocnemian muscle, pancreas and stomach were extracted with TRIzol reagent (Invitrogen, Carlsbad, USA) according to the manufacturer's instruction. The RNA concentration was determined on nanodrop from the absorbance at 260 nm. […] Real-time quantitative PCR (RT-qPCR) were performed on cDNA obtained as described above using a high through put system (Biomek 3000, Beckman & Coulter, Fullerton, USA) and a Lightcycler 480 (Roche/Hitachi, Basel, Switzerland) with SYBR Green Master mix+kit (Eurogentec, Philadelphia, USA). […] Values were expressed as ratio of RNA levels relative to control mice (diets with 0 mg of OEA/kg/body weight) using ΔΔ(Ct) (Livak K J & Schmittgen T D, 2001, Methods 25:402-8). Gene expression of the following genes was measured (abbreviation and GenBank Accession shown in parentheses).
Statistical analysis. […] Daily food intake was analyzed using two-way ANOVA on Statview software. […] For statistical analysis of the gene expression data, values were calculated relative to 18S expression for each mouse and gene.

[5] = system: Sterol regulatory element binding protein-C 2 (SREBP2 1); assay: Real-time PCR gene expression in peripheral tissues: SREBP2; settings: liver; C57bl6j mice, high fat diet, 100 mg/kg/body weight in diet, 5 weeks
Method: as §1, §6, §7

[6] = system: Glucose transporter 4 (Glut 4); assay: Real-time PCR gene expression in peripheral tissues: Glut 4; settings: muscle; C57bl6j mice, high fat diet, 100 mg/kg/body weight in diet, 5 weeks
Method: as §1, §6, §7

[7] = system: overall gene expression pattern; assay: Multivariate statistical analysis of overall gene expression pattern; settings: C57bl6j mice, high fat diet, 100 mg/kg/body weight in diet, 5 weeks
Method: as §1, §6, §7

[8] = system: Stearoyl-Coenzyme A desaturase 1 (SCD 1); assay: Real-time PCR gene expression in peripheral tissues: SCD1; settings: C57bl6j mice, high fat diet, 100 mg/kg/body weight in diet, 5 weeks
Method: as §1, §2, §3, §4, §5

Leptin = assay: Real-time PCR gene expression in peripheral tissues: leptin; settings: C57bl6j mice, high fat diet, 100 mg/kg/body weight in diet, 5 weeks
Method: as §1, §2, §3, §4, §5

AcylCoA oxidase (ACO) = assay: Real-time PCR gene expression in peripheral tissues: ACO; settings: liver; C57bl6j mice, high fat diet, 100 mg/kg/body weight in diet, 5 weeks
Method: as §1, §6, §7

CCCCCCCC/C=C\CCCCCCCC(=O)N[C@H](C)CO [KDS 5104, (Z)—(R)-9-octadecenamide, N-(2-hydroxyethyl, 1-methyl)]
SREBP1c at ep, ratio of RNA levels relative to control mice ([1]; epidydimal adipose tissue): 1.00
SREBP1c l, ratio of RNA levels relative to control mice ([1]; liver): 1.47
SREBP1c at per, ratio of RNA levels relative to control mice ([1]; peritoneal adipose tissue): −1.35
UCP2 m, ratio of RNA levels relative to control mice [2]: 1.11
CB1 at ep, ratio of RNA levels relative to control mice ([3]; epidydimal adipose tissue): −1.48
CB1 at per, ratio of RNA levels relative to control mice ([3]; peritoneal adipose tissue): −3.00
CB1 i, ratio of RNA levels relative to control mice ([3]; proximal intestine): −1.25
FAAH at ep, ratio of RNA levels relative to control mice ([4]; epidydimal adipose tissue): 9.71
FAAH at per, ratio of RNA levels relative to control mice ([4]; peritoneal adipose tissue): 3.82
FAAH i, ratio of RNA levels relative to control mice ([4]; proximal intestine): 1.28
CCK i, ratio of RNA levels relative to control mice (Cholescystokinin (CCK)): 1.62
adiponectin at ep, ratio of RNA levels relative to control mice (Adiponectin; epidydimal adipose tissue): −1.02
adiponectin at per, ratio of RNA levels relative to control mice (Adiponectin; peritoneal adipose tissue): −1.52
SREBP2 l, ratio of RNA levels relative to control mice [5]: 1.13
Glut 4 m, ratio of RNA levels relative to control mice [6]: 5.70
overall gene expression pattern (multivariate statistical analysis) [7]: significant shift
SCD 1 at ep, ratio of RNA levels relative to control mice ([8]; epidydimal adipose tissue): 1.24
SCD1 l, ratio of RNA levels relative to control mice ([8]; liver): −1.91
SCD 1 at per, ratio of RNA levels relative to control mice ([8]; peritoneal adipose tissue): 1.51
leptin at ep, ratio of RNA levels relative to control mice (Leptin; epidydimal adipose tissue): 1.35
leptin at per, ratio of RNA levels relative to control mice (Leptin; peritoneal adipose tissue): −1.32
leptin s, ratio of RNA levels relative to control mice (Leptin; stomach): −1.02
ACO l, ratio of RNA levels relative to control mice (AcylCoA oxidase (ACO)): 1.15
